Data on seven molecules can be found in patent publication US20060094783A1 (Tava Pharmaceutical Industries, Ltd., priority 1990, published 2006).

Data set [1] deals with T1, MAO-A (Rattus norvegicus, UniProt P21396).
T1 construct: MAO activity determined in brain and liver; from tissue; host or cells: brain and liver of male Sprague-Dawley-derived rats
T1 sequence (P21396 1-526): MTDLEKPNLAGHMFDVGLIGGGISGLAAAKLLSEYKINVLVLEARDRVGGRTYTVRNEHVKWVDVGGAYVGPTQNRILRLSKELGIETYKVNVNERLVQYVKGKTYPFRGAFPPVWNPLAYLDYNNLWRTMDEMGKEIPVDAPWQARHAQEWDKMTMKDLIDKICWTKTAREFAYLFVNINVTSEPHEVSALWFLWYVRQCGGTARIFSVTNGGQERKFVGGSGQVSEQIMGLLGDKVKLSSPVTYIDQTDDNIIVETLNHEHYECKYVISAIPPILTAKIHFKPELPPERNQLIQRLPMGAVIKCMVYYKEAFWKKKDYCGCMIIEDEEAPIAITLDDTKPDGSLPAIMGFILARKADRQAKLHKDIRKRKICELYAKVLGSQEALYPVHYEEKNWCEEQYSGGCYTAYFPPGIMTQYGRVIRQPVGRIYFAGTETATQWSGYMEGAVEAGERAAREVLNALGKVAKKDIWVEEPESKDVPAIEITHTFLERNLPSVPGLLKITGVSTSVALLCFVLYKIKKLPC
The experiment in a line: Rat brain MAO inhibition by propargylamines (Table IA), A form. Format: biochemical. Conditions: between the two epimers.

The subject of data set [2] is guinea-pig ileum. Nature of the data set: Antagonism of histamine-induced contractions of guinea-pig ileum. The settings on record: histamine 40 nM.
For data set [3], the system named is guinea-pig ileum. The experiment in a line: Antagonism of bethanechol-induced contractions of guinea pig ileum in presence of 400 μM PAI HCl enantiomer. The settings on record: 400 μM enantiomer.
Data set [4] relates to maximal electroshock seizures in rats. The experiment in a line: Maximal electroshock test (MES test) in rats. Type of data set: in vivo, rat. Conditions: p.o., 50 mg/kg. From the text: (§1) The MES test is a classical model to indicate efficacy for partial and generalized seizures in humans. The agents' mechanism of action is via their ability to prevent the spread of seizures. Some agents, however, that prevent seizure spread have the side effect of lowering seizure threshold. These agents therefore have both proconvulsive and anticonvulsive side effects.

The subject of data set [5] is guinea-pig ileum. Nature of the data set: Antagonism of bethanechol-induced (fixed dose) contractions of guinea-pig ileum. Conditions: bethanechol 0.8 μM.
The test system of data set [6] is maximal electroshock seizures in mice. Nature of the data set: Maximal electroshock test (MES test) in mice. Conditions: i.p. Type of data set: in vivo, mouse.
Source text: as §1

Data set [7] has as its system rabbit jejunum. The experiment in a line: Tyramine potentiation in isolated jejunum preparation. Here is the method:
Peripheral effects of the hydrochloride salts of the enantiomers of PAI were determined in isolated rabbit or guinea-pig small intestine. These observations provide useful information on their relative peripheral side effects in humans. The first point of contact of the subject with an orally administered drug is the gastrointestinal tract where concentrations of the drug are much higher than after absorption and distribution. In the case of PAI hydrochloride (Mw=208), a 10 mg oral dose contained in a liquid volume of about 100 ml would be equivalent to a concentration of about 0.5 mM. In contrast, the therapeutic plasma concentration of (R)-PAI hydrochloride is in the nanomolar range.

Data set [8] deals with MPTP-induced striatal DA and DOPAC depletions in mice. Nature of the data set: Suppression of MPTP-induced dopaminergic toxicity (striatal DA and DOPAC). Format: in vivo, mouse. Conditions: PAI […] i.p., deprenyl 5 mg/kg i.p., 5 days.
Data set [9] has as its system MAO. The settings on record: inhibiting oxidative deamination of tyramine, rat brain homogenate; cited from earlier work.
Data set [10] relates to MAO. Conditions: rat liver homogenate; cited from earlier work.
Data set [11] has as its system tyramine pressor response in conscious rats. The experiment in a line: Potentiation of tyramine pressor effect in conscious rats. Type of data set: in vivo, rat.
Description: The left carotid artery and jugular vein were cannulated with fine polytene tubing (artery) or fine silicone rubber tubing connected to polyethylene tubing (vein), the distal end of which was brought under the skin to an anchor point behind the neck. The tubing was filled with heparinized saline solution, and plugged with a fine steel rod. The animals were treated with 2. mg chloramphenicol by intramuscular injection and allowed to recover from the operation overnight. The following day, the rats were placed in a high-walled container permitting free movement. […] Following an equilibration period of 30 to 40 minutes, tyramine injections (50 or 100 μg) were given, and blood pressure-responses recorded. An interval of at least 15 minutes was maintained between injections after return of blood pressure to control values. Control pressor responses were established, then one of the drugs was injected intraperitoneally, and tyramine responses were repeated over the next 4 hours. The area under the blood pressure response curve was estimated, and the ratio of this area after treatment to before treatment and to 1 to 3 hours after injection of the compounds, was determined using the average of 3 to 4 values obtained in the control period.
The target in data set [12] is T2, MAO-B (Rattus norvegicus, UniProt P19643).
T2 sequence (P19643 1-520): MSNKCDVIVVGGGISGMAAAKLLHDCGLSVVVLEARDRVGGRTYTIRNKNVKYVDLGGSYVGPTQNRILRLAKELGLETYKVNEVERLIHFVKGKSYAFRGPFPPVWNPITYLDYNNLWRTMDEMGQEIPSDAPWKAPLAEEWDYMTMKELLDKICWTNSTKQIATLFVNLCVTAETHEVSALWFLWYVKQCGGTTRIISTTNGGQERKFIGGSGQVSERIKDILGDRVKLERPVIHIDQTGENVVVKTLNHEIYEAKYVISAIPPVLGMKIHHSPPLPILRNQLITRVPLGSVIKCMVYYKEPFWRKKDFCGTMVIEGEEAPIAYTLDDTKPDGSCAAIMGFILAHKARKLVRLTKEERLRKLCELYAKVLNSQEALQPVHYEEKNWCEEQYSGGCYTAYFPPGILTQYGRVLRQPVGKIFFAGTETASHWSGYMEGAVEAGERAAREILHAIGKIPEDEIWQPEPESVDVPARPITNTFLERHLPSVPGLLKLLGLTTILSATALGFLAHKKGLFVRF
Nature of the data set: Inhibition of MAO activity in vitro, rat brain homogenate, PEA substrate. Type of data set: biochemical. Also noted: in a rat brain preparation of MAO; host or cells: rat brain preparation. Here is the method:
The MAO enzyme source was a homogenate of rat brain in 0.3M sucrose, which was centrifuged at 600 g for 15 minutes. […] Substrate concentrations used were 50 uM (PEA) and 1 mM (5-HT). In the case of PEA, enzyme concentration was chosen so that not more than 10% of the substrate was metabolized during the course of the reaction. […] The column was washed with 1.5 ml water, the eluates pooled and the radioactive content determined by liquid scintillation spectrometry. Since the amine substrates are totally retained on the column, radioactivity in the eluate indicates the production of neutral and acidic metabolites formed as a result of MAO activity. Activity of MAO in the sample was expressed as a percentage of control activity in the absence of inhibitors after subtraction of appropriate blank values. The activity determined using PEA as substrate is referred to as MAO-B, and that determined using 5-HT as MAO-A.

Data set [13] deals with T2, MAO-B. Nature of the data set: Inhibition of MAO activity in vivo, acute treatment, MAO-B. The settings on record: for IC-50 MAO-B: I.P., 1 h after dose. Also noted: in a rat brain preparation of MAO; host or cells: rat brain preparation.
Data set [14] addresses T1, MAO-A. Nature of the data set: Inhibition of MAO activity in vivo, acute treatment, MAO-A. Conditions: for IC-50 MAO-A: rat.
The subject of data set [15] is passive avoidance response in young rats. Nature of the data set: Passive avoidance test in young rats (memory). Type of data set: in vivo, rat. From the text:
The effect of R(+)-PAI and S(−)-PAI on the improvement or restoration of memory was investigated in the passive avoidance test. If the drug is effective, it increases the latency of response to enter a dark compartment or chamber where an electroshock has been experienced earlier by the rat being tested. The latency of the maximal response is 300 seconds.

For data set [16], the target named is T2, MAO-B. The settings on record: rat whole brain, 1 mg/kg i.p. single dose. Here is the method: Activity of MAO-B was determined in whole brain tissues as described hereinabove.
The test system of data set [17] is Metrazol seizure threshold in mice. Conditions: Kupferberg 1989; cited from earlier work.
The mark [18] stands for this setting: pretreatment 1 h before MPTP 30 mg/kg s.c.

Structures can show the parent of a compound that is named as a salt. Where two headings read alike, the source gives them in different places.

In the case of `C#CCNC1CCCc2ccccc21` (racemic) [Example 1-PAT, N-propargyl-1-aminotetralin], the “Relative potency A (+/− or R/S)” value in [1] is 4.

Turning to `C#CCN[C@H]1CCc2ccccc21` [(S)-PAI HCl, S-(−)-N-Propargyl-1-aminoindan hydrochloride], the Percent relaxation is given as 11 in [2] (PAI concentration 2 μM); 15 in data set [2] (PAI concentration 4 μM); 30 in [2] (PAI concentration 10 μM); 20 in data set [2] (PAI concentration 20 μM); 33 in data set [2] (PAI concentration 30 μM); 36 in data set [2] (PAI concentration 40 μM). Besides, the Percent relaxation in data set [2] (PAI concentration 100 μM) is reported as 71; in [2] (PAI concentration 200 μM) it was 90; in data set [2] (PAI concentration 400 μM) it was 98; in [2] (PAI concentration 1000 μM), 100; in [5] (PAI concentration 20 μM), 40-50; in data set [5] (PAI concentration 60 μM), 60-70. Further, the Percent relaxation in [5] (PAI concentration 100 μM) was 100; in data set [5] (PAI concentration 300 μM) it was 100; in data set [7] (PAI HCl enantiomer alone, 0.2-4.0 μM), 0; in data set [7] (tyramine 40 μM after 0.2 μM PAI HCl enantiomer) it was 0; in data set [7] (tyramine 40 μM after 2 μM PAI HCl enantiomer), 35; in data set [7] (tyramine 40 μM after 40 μM PAI HCl enantiomer), 33-50. The gram-tension in [3] (bethanechol 0.8 μM) is recorded as 0 gram-tension; in data set [3] (bethanechol 2 μM), 0 gram-tension; in data set [3] (bethanechol 4 μM), 0 gram-tension; in [3] (bethanechol 8 μM), 0.6 gram-tension; in data set [3] (bethanechol 40 μM), 1.7 gram-tension. Further, the “animals protected from seizures” value in data set [4] is given as “Four out of four”. Also, in [6], the ED50 anticonvulsant activity worked out at 57 mg/kg.

As to `C#CCN(C)[C@H](C)Cc1ccccc1` [DEPRENYL R, reference compound], the “striatal DA” value is recorded as 170.6 ± 7.1 ng/mg protein in data set [8] (drug alone) and 197.0 ± 8.0 ng/mg protein in data set [8] (setting [18]). Besides, the results for the “striatal DOPAC” value in [8] (drug alone) and in [8] (setting [18]) were 5.6 ± 0.3 ng/mg protein and 6.4 ± 0.5 ng/mg protein, respectively. For the same molecule, the “times more potent than the S-(+) enantiomer” value in [9] is reported as 500 times. Further, in [10], the “times as potent as the S enantiomer” value is 15 times.

As to `C#CCN(C)C1CCCc2ccccc21` (stereo not drawn) [Example 2-MPAI, N-Methyl-N-propargyl-1-aminotetralin], in [1], the “Relative potency A (+/− or R/S)” value worked out at 3.

Regarding `C#CCN[C@@H]1CCc2ccccc21` [R(+)PAI, R(+)-N-propargyl-1-aminoindan], the “striatal DOPAC” value in [8] (setting [18]) was 6.0 ± 0.3 ng/mg protein. Moreover, the “potentiation of tyramine pressor response (in words)” value in data set [11] (1 mg/kg) was “no significant potentiation”; in data set [11] (5 mg/kg), “significant potentiation”. Moreover, the “times more active for inhibition of MAO-B than MAO-A” value in [12] came to 29 times. The figures for the “times more active than S(−)PAI as inhibitor of MAO-B” value in data set [12] and in data set [12] (listed as R(+)-PAI) were ~7,000 times and “about 7000 times”, respectively. The “inhibition of MAO-B in brain and liver” value in data set [13] (1 mg/kg) is on record as “complete inhibition”. In addition, the “IC-50 MAO-B” value in data set [13] (brain) was 0.07 mg/kg; in [13] (liver), 0.06 mg/kg. The “inhibition of MAO-A” value in [14] (rat brain, 0.5 mg/kg oral) was “no detectable inhibition”. For the same molecule, the “IC-50 MAO-A” value in data set [14] (I.P., brain, 1 h after dose) is reported as 1.2 mg/kg; in [14] (I.P., liver, 1 h after dose), 5 mg/kg; in data set [14] (P.O., brain, 2 h after dose) it was greater than 5 mg/kg; in data set [14] (P.O., liver, 2 h after dose), greater than 5 mg/kg. Moreover, the “percent increase of latency After Electroshock vs corresponding group” value was 19% in data set [15] (Protocol A, anoxia-lesioned rats); “+9%” in data set [15] (Protocol A, control rats); “+15%” in [15] (Protocol B, anoxia-lesioned rats); “+23%” in data set [15] (Protocol B, control rats). For the same molecule, the “time of maximal inhibition of MAO-B after injection” value in data set [16] came out at 6 h.

Take `NC(=O)N1c2ccccc2C=Cc2ccccc21` [carbamazepine]: the “effect on time to first focal seizure and onset of clonus (proconvulsive activity)” value in data set [17] is on record as “do not show this effect”.

Regarding `O=C1NC(=O)C(c2ccccc2)(c2ccccc2)N1` [phenytoin], in [17], the “effect on time to first focal seizure and onset of clonus (proconvulsive activity)” value was “do not show this effect”.
